“Also recorded” adds a separate entry of the source.
Columns and labels:
Nav1.5-K1493E = biological target: T1, Nav1.5-K1493E (Homo sapiens, UniProt Q14524, K1493E); test: Whole-cell ILATE of Nav1.5-K1493E with CRY2-5ptase; format: cell-based; conditions: 200 μM diC8-PI(4,5)P2 in pipette
T1 construct: expressed in transfected cells; HEK293T
Text: FIGS. 31A-31D show representative currents from Nav1.5-K1493E showing enhanced ILATE that is further augmented by activation of CRY2-5ptase.
Multiple dysrhythmic disorders are associated with mutations in Nav1.5. Nav1.5-E1784K is the most common variant and is associated with LQT3, BrS, and sinus node dysfunction. E1784K is in the proximal C-terminal domain where it disrupts an interaction with K1493 (DIII-DIV linker) that alters channel gating and increases ILATE. The complementary mutation, K1493E also augments ILATE. […] These findings indicate a potential role for PI(4,5)P2 in the mechanism of, at least some, Nav1.5 disease mutants.

Nav1.4 = biological target: T2, Nav1.4 (Rattus norvegicus, UniProt P15390); test: Whole-cell patch clamp of rNav1.4 + Navβ1 in HEK293T cells with optogenetic PI-phosphatases and diC8PI(4,5)P2 in the pipette; format: cell-based; conditions: for ILATE: % of IPEAK
T2 construct: expressed in transfected cells; host or cells: HEK293T (ATCC CRL-3216)
T2 sequence (P15390 whole entry): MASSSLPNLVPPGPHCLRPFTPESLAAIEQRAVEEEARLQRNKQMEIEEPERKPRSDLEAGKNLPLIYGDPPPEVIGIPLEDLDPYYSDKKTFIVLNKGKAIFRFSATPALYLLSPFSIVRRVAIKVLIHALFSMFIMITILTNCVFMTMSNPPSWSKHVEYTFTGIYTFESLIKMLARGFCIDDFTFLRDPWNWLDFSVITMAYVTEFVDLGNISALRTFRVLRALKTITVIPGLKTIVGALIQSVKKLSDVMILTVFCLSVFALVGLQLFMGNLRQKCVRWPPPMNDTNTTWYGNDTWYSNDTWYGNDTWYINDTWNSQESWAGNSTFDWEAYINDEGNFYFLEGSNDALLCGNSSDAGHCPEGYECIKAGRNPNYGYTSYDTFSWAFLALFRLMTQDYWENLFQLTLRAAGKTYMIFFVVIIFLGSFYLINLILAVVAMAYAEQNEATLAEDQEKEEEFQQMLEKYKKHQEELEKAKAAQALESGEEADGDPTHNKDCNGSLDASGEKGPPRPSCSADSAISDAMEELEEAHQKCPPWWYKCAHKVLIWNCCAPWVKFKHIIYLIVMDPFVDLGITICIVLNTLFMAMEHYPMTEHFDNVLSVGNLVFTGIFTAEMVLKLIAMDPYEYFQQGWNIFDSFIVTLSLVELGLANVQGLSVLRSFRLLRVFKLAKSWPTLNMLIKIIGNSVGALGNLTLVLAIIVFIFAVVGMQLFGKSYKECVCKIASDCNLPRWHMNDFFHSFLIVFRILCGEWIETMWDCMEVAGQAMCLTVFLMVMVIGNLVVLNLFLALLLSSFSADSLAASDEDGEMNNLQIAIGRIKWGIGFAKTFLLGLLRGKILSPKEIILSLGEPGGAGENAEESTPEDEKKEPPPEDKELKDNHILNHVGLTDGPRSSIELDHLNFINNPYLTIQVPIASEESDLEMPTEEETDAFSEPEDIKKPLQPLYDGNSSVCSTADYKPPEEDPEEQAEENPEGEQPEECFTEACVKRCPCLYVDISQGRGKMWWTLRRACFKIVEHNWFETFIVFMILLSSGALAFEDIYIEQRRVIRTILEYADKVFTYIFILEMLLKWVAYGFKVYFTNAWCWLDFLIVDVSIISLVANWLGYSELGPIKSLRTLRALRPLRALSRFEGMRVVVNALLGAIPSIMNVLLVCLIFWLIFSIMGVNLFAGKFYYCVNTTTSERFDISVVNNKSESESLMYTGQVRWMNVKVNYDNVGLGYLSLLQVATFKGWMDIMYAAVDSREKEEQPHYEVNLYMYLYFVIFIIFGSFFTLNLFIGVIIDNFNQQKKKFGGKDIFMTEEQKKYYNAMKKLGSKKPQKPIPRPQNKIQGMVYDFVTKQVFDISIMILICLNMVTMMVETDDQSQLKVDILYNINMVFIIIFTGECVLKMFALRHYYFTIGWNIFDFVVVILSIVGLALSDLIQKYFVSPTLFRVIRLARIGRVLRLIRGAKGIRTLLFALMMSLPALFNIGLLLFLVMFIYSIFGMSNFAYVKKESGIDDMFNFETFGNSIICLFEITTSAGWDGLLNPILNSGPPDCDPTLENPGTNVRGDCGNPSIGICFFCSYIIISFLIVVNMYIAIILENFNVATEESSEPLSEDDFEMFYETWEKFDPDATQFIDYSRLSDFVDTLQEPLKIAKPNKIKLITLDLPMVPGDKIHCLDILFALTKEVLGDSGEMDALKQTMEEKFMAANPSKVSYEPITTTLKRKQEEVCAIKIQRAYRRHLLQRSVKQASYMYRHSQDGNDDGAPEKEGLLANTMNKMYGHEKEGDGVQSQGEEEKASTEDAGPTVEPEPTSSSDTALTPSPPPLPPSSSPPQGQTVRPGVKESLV
T2 sequence (Q07699 19-218 partner): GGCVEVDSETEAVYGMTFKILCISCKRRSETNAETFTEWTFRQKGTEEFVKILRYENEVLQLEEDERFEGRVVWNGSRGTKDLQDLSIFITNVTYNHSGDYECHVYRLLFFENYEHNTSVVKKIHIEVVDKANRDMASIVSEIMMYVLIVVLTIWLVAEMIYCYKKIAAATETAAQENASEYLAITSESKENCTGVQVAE
Text: Purified diC8PI(4,5)P2 was purchased from Echelon Biosciences. For oocyte studies, plasmid vectors were linearized after the Xenopus β-globulin domain of each construct, verified by gel electrophoresis, and transcribed in vitro using the mMESSAGE mMACHINE T7 Transcription Kit (Thermo Fisher Scientific) to generate cRNA according to the manufacturer's protocol. Rat Nav1.4 (SCN4 Å; NM_013178.2) was handled in pBud, a CMV driven vector. To study Nav1.4 currents, the plasmid was used in concert with Navβ1 (SCN1B, isoform b; NM_001037) in pRAT, a CMV driven vector. The inactivation deficient mutant, Nav1.4-WCW was handled in pCap. CRY2-Sac2 was subcloned into pMAX(+) for expression in mammalian cells, or the generation of cRNA for use in Xenopus oocytes. The open reading frame of pseudojanin was designed with an N-terminal CRY2-tag in the pMAX(+) vector and was generated by Genscript (Piscataway, NY).
Human embryonic kidney (HEK293T) cells were acquired from American Type Culture Collection (ATCC, Cat #CRL-3216) and were maintained in Dulbecco's modified Eagle's medium (ATCC) supplemented with 100 units/ml penicillin, 100 μg/ml streptomycin, and 10% (vol/vol) fetal bovine serum. Cells were routinely confirmed to be mycoplasma free via PCR and Hoescht stain. The cells were incubated in a 37° C., humified incubator supplemented with 5% CO2. For our experiments, cells were seeded on glass coverslips in 35 mm culture dishes at least one day before transfection. Cells were transiently transfected with rNav1.4, Navβ1, CIBN-CAAX and CRY2-5-PtaseOCRL or CRY2-pseudojanin, along with the near-infrared PI(4,5)P2 biosensor iRFP-PHPLCδ1 as indicated, in OptiMEM using polyethyleneimine (PEI) for 1-2 hours at a ratio of 1 μg of DNA to 4 μL PEI. The near red fluorescent protein, mCherry, was typically used as a transfection marker. The cells were studied 24-48 hours after transfection.
Whole-cell patch clamp. HEK293T cells were studied by whole cell patch-clamp. Currents were recorded with a Tecella Pico-2 amplifier (Tecella) controlled using WinWCP software (University of Strathclyde). Currents were low pass (Bessel) filtered at 9 kHz and digitized at 50 kHz. […] The cells were perfused using a multichannel gravity-driven perfusion manifold (Warner) with an extracellular solution containing (in mM): 130 NaCl, 5 CsCl, 1.2 MgCl2·6H2O, 1.5 CaCl2), 8 Glucose, 10 HEPES. Data was collected from cells with a series resistance less than 15 MQ. The junction potential was less than 3 mV and was not compensated.
Current-voltage (I-V) relationships were evoked from a holding potential of −90 mV by 400 ms test pulses between −80 and 50 mV, in 5 mV increments. Steady-state inactivation was studied by holding the cells at −140 mV and then comparing currents evoked by 50 ms test pulses between −140 mV and 30 mV to those evoked by a 100 ms prepulse to […]. A 10 s interpulse interval was used in both cases. Normalized peak current values are plotted against the prepulse potential (mV). To quantify voltage-dependence, the data were normalized, plotted against the driving force to generate normalized conductance-voltage relationships (G-V) that were fit using a Boltzmann function, I=IMAX/(1+exp[V−V ½/K]), where IMAX is the maximum current and K is the slope factor. Recovery from fast inactivation was studied by holding cells at −100 mV and comparing currents evoked by a pair of 50 ms test step to −30 mV separated by an interpulse interval that increased in duration by 5 ms increments per sweep. The time constant for recovery from inactivation (τinact) was obtained from mono-exponential fits of the normalized current amplitude to the recovery time using It=Imax+A[e^−t/τ], where ‘A’ is the amplitude of components and ‘t’ is time. Whole-cell currents were normalized to cell capacitance. Mean±SEM capacitance values were 12±4 pF for HEK293T cells. […]

[1] = 200 μM diC8-PIP2 in patch pipette
[2] = 200 μM diC8PI(4,5)P2, CRY2-PJ cells
[3] = 200 μM diC8PI(4,5)P2 vs CRY2-PJ BL
[4] = CRY2-5POCRL, BL + 200 μM diC8PI(4,5)P2
[5] = CRY2-5POCRL, Control + 200 μM diC8PI(4,5)P2
[6] = CRY2-PJ, BL + 200 μM diC8PI(4,5)P2
[7] = CRY2-PJ, Control + 200 μM diC8PI(4,5)P2

SMILES: CCCCCCCC(=O)OC[C@H](COP(=O)(O)O[C@@H]1[C@H](O)[C@H](O)[C@@H](OP(=O)(O)O)[C@H](OP(=O)(O)O)[C@H]1O)OC(=O)CCCCCCC [diC8-PIP2]
- effect on Nav1.5-K1493E ILATE (Nav1.5-K1493E): abolishes; also recorded: opposes
- effect on further increase in ILATE on activation of CRY2-5ptase (Nav1.5-K1493E): precluded
- effect on V½ACT of Nav1.4 (Nav1.4; [1]): rightward shift
- effect on V½SSI of Nav1.4 (Nav1.4; [1]): no effect
- effect on CRY2-5POCRL effects on voltage-dependent gating (Nav1.4; 200 μM diC8PI(4,5)P2): precluded
- effect on CRY2-PJ photoactivation effects on V½act (Nav1.4; 200 μM diC8PI(4,5)P2): ameliorated
- right shift in V½act (Nav1.4; 200 μM diC8PI(4,5)P2, CRY2-5POCRL cells): ~5 mV
- effect on increase in the magnitude of the window current (Nav1.4; 200 μM diC8PI(4,5)P2, CRY2-PJ): abolished
- right-shift in V½SSI compared to untreated cells (Nav1.4; [2]): ~3 mV
- right-shift in V½act compared to untreated cells (Nav1.4; [2]): −5.5 mV
- overall excursion in mean V½ACT between diC8PI(4,5)P2 treated cells and control cells after photoactivation (Nav1.4; 200 μM diC8PI(4,5)P2 vs CRY2-5POCRL BL): −12.5±3 mV
- change in mean V½act between diC8PI(4,5)P2 treated cells and control cells after dephosphorylation (Nav1.4; [3]): −16±2 mV
- shift in mean V½SSI between diC8PI(4,5)P2 treated cells and control cells after dephosphorylation (Nav1.4; [3]): −5.4±2 mV
- KAct (Nav1.4; [4]): 5.2 ± 0.3 mV
- KSSI (Nav1.4; [4]): −5.1 ± 1^ mV
- V½SSI (Nav1.4; [4]): −57 ± 1 mV
- V½act (Nav1.4; [4]): −32 ± 1 mV
- tau (fast inactivation) (Nav1.4; [4]): 7.4 ± 0.6 ms
- IPEAK (Nav1.4; CRY2-5POCRL, BL + 200 μM diC8PI(4,5)P2, −20 mV): −268 ± 25 pA/pF
- IPEAK (Nav1.4; CRY2-5POCRL, BL + 200 μM diC8PI(4,5)P2, −40 mV): −202 ± 21 pA/pF
- IPEAK (Nav1.4; CRY2-5POCRL, BL + 200 μM diC8PI(4,5)P2, −60 mV): −19 ± 4 pA/pF
- ILATE (Nav1.4; [4]): 0.27 ± 0.02%
- KAct (Nav1.4; [5]): 5.0 ± 0.2 mV
- KSSI (Nav1.4; [5]): −5.0 ± 2^ mV
- V½SSI (Nav1.4; [5]): −58 ± 2 mV
- V½act (Nav1.4; [5]): −32 ± 1 mV
- tau (fast inactivation) (Nav1.4; [5]): 6.0 ± 0.3 ms
- IPEAK (Nav1.4; CRY2-5POCRL, Control + 200 μM diC8PI(4,5)P2, −20 mV): −274 ± 32 pA/pF
- IPEAK (Nav1.4; CRY2-5POCRL, Control + 200 μM diC8PI(4,5)P2, −40 mV): −186 ± 28 pA/pF
- IPEAK (Nav1.4; CRY2-5POCRL, Control + 200 μM diC8PI(4,5)P2, −60 mV): −23 ± 6 pA/pF
- ILATE (Nav1.4; [5]): 0.26 ± 0.02%
- KAct (Nav1.4; [6]): 5.0 ± 1.0 mV
- KSSI (Nav1.4; [6]): −5.1 ± 0.5 mV
- V½SSI (Nav1.4; [6]): −54 ± 2 mV
- V½act (Nav1.4; [6]): −33 ± 4 mV
- tau (fast inactivation) (Nav1.4; [6]): 5.1 ± 0.3 ms
- IPEAK (Nav1.4; CRY2-PJ, BL + 200 μM diC8PI(4,5)P2, −20 mV): −272 ± 24 pA/pF
- IPEAK (Nav1.4; CRY2-PJ, BL + 200 μM diC8PI(4,5)P2, −40 mV): −209 ± 22 pA/pF
- IPEAK (Nav1.4; CRY2-PJ, BL + 200 μM diC8PI(4,5)P2, −60 mV): −23 ± 3 pA/pF
- ILATE (Nav1.4; [6]): 0.38 ± 0.03%
- KAct (Nav1.4; [7]): 4.0 ± 0.7 mV
- KSSI (Nav1.4; [7]): −4.2 ± 1.0 mV
- V½SSI (Nav1.4; [7]): −55 ± 4 mV
- V½act (Nav1.4; [7]): −33 ± 3 mV
- tau (fast inactivation) (Nav1.4; [7]): 4.7 ± 0.2 ms
- IPEAK (Nav1.4; CRY2-PJ, Control + 200 μM diC8PI(4,5)P2, −20 mV): −264 ± 18 pA/pF
- IPEAK (Nav1.4; CRY2-PJ, Control + 200 μM diC8PI(4,5)P2, −40 mV): −194 ± 24 pA/pF
- IPEAK (Nav1.4; CRY2-PJ, Control + 200 μM diC8PI(4,5)P2, −60 mV): −19 ± 2 pA/pF
- ILATE (Nav1.4; CRY2-PJ, Control + 200 μM diC8PI(4,5)P2, pulse to −20 mV): 0.37 ± 0.1%
